Laboratory results reported in PubChem BioAssay (NCI).
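In this assay, cells in 96-well plates receive the compound at five concentrations for 48 hours. Endpoints are linearly interpolated between the surrounding concentrations. TGI: total growth inhibition.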

Legend:
Experiment in all cases: DTP human tumour cell line panel, 48 h
M19-MEL melanoma = test system: M19-MEL melanoma
NCI-H460 lung = test system: NCI-H460 lung
TK-10 renal = test system: TK-10 renal
HL-60(TB) leukemia = test system: HL-60(TB) leukemia
SNB-78 CNS = test system: SNB-78 CNS
HOP-92 NSCLC = test system: HOP-92 NSCLC
HT29 colon = test system: HT29 colon
HOP-62 NSCLC = test system: HOP-62 NSCLC
MOLT-4 leukemia = test system: MOLT-4 leukemia
OVCAR-8 ovarian = test system: OVCAR-8 ovarian
NCI-H23 lung = test system: NCI-H23 lung
KM20L2 colon = test system: KM20L2 colon
SW-620 colon = test system: SW-620 colon
DMS 273 small cell lung = test system: DMS 273 small cell lung
NCI-H522 lung = test system: NCI-H522 lung
SK-OV-3 ovarian = test system: SK-OV-3 ovarian
KM12 colon = test system: KM12 colon
HCT-15 colon = test system: HCT-15 colon
K-562 leukemia = test system: K-562 leukemia
786-0 renal = test system: 786-0 renal
SK-MEL-5 melanoma = test system: SK-MEL-5 melanoma
IGROV1 ovarian = test system: IGROV1 ovarian
CAKI-1 renal = test system: CAKI-1 renal
DLD-1 colon = test system: DLD-1 colon
ACHN renal = test system: ACHN renal
OVCAR-4 ovarian = test system: OVCAR-4 ovarian
SK-MEL-2 melanoma = test system: SK-MEL-2 melanoma
DMS 114 small cell lung = test system: DMS 114 small cell lung
UACC-62 melanoma = test system: UACC-62 melanoma
COLO 205 colon = test system: COLO 205 colon
UO-31 renal = test system: UO-31 renal
SF-539 CNS = test system: SF-539 CNS
CCRF-CEM leukemia = test system: CCRF-CEM leukemia
A498 renal = test system: A498 renal
SF-295 CNS = test system: SF-295 CNS
SNB-19 CNS = test system: SNB-19 CNS
RXF 393 renal = test system: RXF 393 renal
A549 NSCLC = test system: A549 NSCLC
SNB-75 CNS = test system: SNB-75 CNS
RXF-631 renal = test system: RXF-631 renal
RPMI-8226 leukemia = test system: RPMI-8226 leukemia
HCC-2998 colon = test system: HCC-2998 colon
LOX IMVI melanoma = test system: LOX IMVI melanoma
SF-268 CNS = test system: SF-268 CNS
OVCAR-3 ovarian = test system: OVCAR-3 ovarian
LXFL 529 NSCLC = test system: LXFL 529 NSCLC
SN12C renal = test system: SN12C renal
XF 498 CNS = test system: XF 498 CNS
MALME-3M melanoma = test system: MALME-3M melanoma
SR leukemia = test system: SR leukemia
UACC-257 melanoma = test system: UACC-257 melanoma
SK-MEL-28 melanoma = test system: SK-MEL-28 melanoma
OVCAR-5 ovarian = test system: OVCAR-5 ovarian
NCI-H226 lung = test system: NCI-H226 lung
EKVX NSCLC = test system: EKVX NSCLC
M14 melanoma = test system: M14 melanoma
U251 CNS = test system: U251 CNS
HCT-116 colon = test system: HCT-116 colon
HOP-18 NSCLC = test system: HOP-18 NSCLC

In the case of COC(=O)C1C2C=CC(C2)C1(C(=O)OC)S(=O)CC12CCC(CC1O)C2(C)C (stereo not given), the TGI (M19-MEL melanoma) is reported as > 100 µM, the TGI (NCI-H460 lung) is reported as > 100 µM and the TGI (TK-10 renal) is reported as > 100 µM. For the same compound, the TGI (HL-60(TB) leukemia) was > 100 µM, the TGI (SNB-78 CNS) was > 100 µM and the TGI (HOP-92 NSCLC) was > 100 µM. The TGI (HT29 colon) was > 100 µM, the TGI (HOP-62 NSCLC) was > 100 µM and the TGI (MOLT-4 leukemia) was > 100 µM. For the same compound, the TGI (OVCAR-8 ovarian) was > 100 µM, the TGI (NCI-H23 lung) was > 100 µM and the TGI (KM20L2 colon) was > 100 µM. For the same compound, the TGI (SW-620 colon) was 37.6 µM, the TGI (DMS 273 small cell lung) was > 100 µM and the TGI (NCI-H522 lung) was > 100 µM. The TGI (SK-OV-3 ovarian) was > 100 µM, the TGI (KM12 colon) was > 100 µM and the TGI (HCT-15 colon) was 37.7 µM. For the same compound, the TGI (K-562 leukemia) was > 100 µM, the TGI (786-0 renal) was > 100 µM and the TGI (SK-MEL-5 melanoma) was > 100 µM. The TGI (IGROV1 ovarian) was > 100 µM, the TGI (CAKI-1 renal) was > 100 µM and the TGI (DLD-1 colon) was > 100 µM. The TGI (ACHN renal) was > 100 µM, the TGI (OVCAR-4 ovarian) was > 100 µM and the TGI (SK-MEL-2 melanoma) was > 100 µM. For the same compound, the TGI (DMS 114 small cell lung) was > 100 µM, the TGI (UACC-62 melanoma) was > 100 µM and the TGI (COLO 205 colon) was > 100 µM. For the same compound, the TGI (UO-31 renal) was > 100 µM, the TGI (SF-539 CNS) was > 100 µM and the TGI (CCRF-CEM leukemia) was > 100 µM. The TGI (A498 renal) was > 100 µM, the TGI (SF-295 CNS) was > 100 µM and the TGI (SNB-19 CNS) was > 100 µM. The TGI (RXF 393 renal) was > 100 µM, the TGI (A549 NSCLC) was > 100 µM and the TGI (SNB-75 CNS) was > 100 µM. For the same compound, the TGI (RXF-631 renal) was > 100 µM, the TGI (RPMI-8226 leukemia) was > 100 µM and the TGI (HCC-2998 colon) was > 100 µM. For the same compound, the TGI (LOX IMVI melanoma) was 40 µM, the TGI (SF-268 CNS) was > 100 µM and the TGI (OVCAR-3 ovarian) was > 100 µM. The TGI (LXFL 529 NSCLC) was > 100 µM, the TGI (SN12C renal) was > 100 µM and the TGI (XF 498 CNS) was > 100 µM. The TGI (MALME-3M melanoma) was > 100 µM, the TGI (SR leukemia) was 63.1 µM and the TGI (UACC-257 melanoma) was > 100 µM. For the same compound, the TGI (SK-MEL-28 melanoma) was > 100 µM, the TGI (OVCAR-5 ovarian) was > 100 µM and the TGI (NCI-H226 lung) was > 100 µM. For the same compound, the TGI (EKVX NSCLC) was > 100 µM, the TGI (M14 melanoma) was > 100 µM and the TGI (U251 CNS) was > 100 µM. For the same compound, the TGI (HCT-116 colon) was > 100 µM and the TGI (HOP-18 NSCLC) was > 100 µM.

In the case of Nc1c(Br)c(=O)[nH]c(=O)n1COCCO, the TGI (M19-MEL melanoma) is reported as > 100 µM, the TGI (NCI-H460 lung) is reported as > 100 µM and the TGI (TK-10 renal) is reported as > 100 µM. The TGI (HL-60(TB) leukemia) was > 100 µM, the TGI (SNB-78 CNS) was > 100 µM and the TGI (HOP-92 NSCLC) was > 100 µM. For the same compound, the TGI (HT29 colon) was > 100 µM, the TGI (HOP-62 NSCLC) was > 100 µM and the TGI (MOLT-4 leukemia) was > 100 µM. The TGI (OVCAR-8 ovarian) was > 100 µM, the TGI (NCI-H23 lung) was > 100 µM and the TGI (SW-620 colon) was > 100 µM. For the same compound, the TGI (DMS 273 small cell lung) was > 100 µM, the TGI (NCI-H522 lung) was > 100 µM and the TGI (KM12 colon) was > 100 µM. For the same compound, the TGI (K-562 leukemia) was > 100 µM, the TGI (786-0 renal) was > 100 µM and the TGI (SK-MEL-5 melanoma) was > 100 µM. For the same compound, the TGI (IGROV1 ovarian) was > 100 µM, the TGI (CAKI-1 renal) was > 100 µM and the TGI (DLD-1 colon) was > 100 µM. For the same compound, the TGI (ACHN renal) was > 100 µM, the TGI (OVCAR-4 ovarian) was > 100 µM and the TGI (DMS 114 small cell lung) was > 100 µM. The TGI (UACC-62 melanoma) was > 100 µM, the TGI (COLO 205 colon) was > 100 µM and the TGI (UO-31 renal) was > 100 µM. For the same compound, the TGI (SF-539 CNS) was > 100 µM, the TGI (CCRF-CEM leukemia) was > 100 µM and the TGI (SF-295 CNS) was > 100 µM. The TGI (SNB-19 CNS) was > 100 µM, the TGI (RXF 393 renal) was > 100 µM and the TGI (A549 NSCLC) was > 100 µM. The TGI (SNB-75 CNS) was > 100 µM, the TGI (RXF-631 renal) was > 100 µM and the TGI (HCC-2998 colon) was > 100 µM. The TGI (LOX IMVI melanoma) was > 100 µM, the TGI (SF-268 CNS) was > 100 µM and the TGI (OVCAR-3 ovarian) was > 100 µM. The TGI (LXFL 529 NSCLC) was > 100 µM, the TGI (SN12C renal) was > 100 µM and the TGI (XF 498 CNS) was > 100 µM. For the same compound, the TGI (MALME-3M melanoma) was > 100 µM, the TGI (SR leukemia) was > 100 µM and the TGI (UACC-257 melanoma) was > 100 µM. For the same compound, the TGI (SK-MEL-28 melanoma) was > 100 µM, the TGI (OVCAR-5 ovarian) was > 100 µM and the TGI (M14 melanoma) was > 100 µM. For the same compound, the TGI (U251 CNS) was > 100 µM, the TGI (HCT-116 colon) was > 100 µM and the TGI (HOP-18 NSCLC) was > 100 µM.
